Experiments:
[1] = test system: Human newborn dermal fibroblasts (NB1RBG); test: Inhibitory activity on the extracellular matrices production of fibroblasts with TGF-β, collagen staining method (anti-human type I collagen antibody; type I collagen sedimentation); assay type: cell-based; details: Fibroblast, 120 h
From the text: Test samples used were Intin-koo extract (Preparation example 1), Forsythia suspensa VAHL. extract (Preparation example 2), Sophora flavescens AITON. extract (Preparation example 3), Rheum palmatum L. extract (Preparation example 4), Glycyrrhiza alabra L. var. glandulifera Regel et Herder extract (Preparation example 5), Goboosi extract with water (Preparation example 6), Goboosi extract with ethanol (Preparation example 7), zhimu extract (Preparation example 8), Dokkatu extract (Preparation example 9), mutong extract (Preparation example 10), soozyutu extract (Preparation example 11), o-phenanthroline (produced by Dojin Chemical Co.: special grade chemical), 2,2'-dipyridyl (produced by Aldrich Chemical Co.) and malotilate (extracted from Kantec tablet produced by Daiichi Pharmaceutical Co.).
(§1) Human newborn dermal fibroblasts (NB1RBG) (obtained from the Institute of Physical and Chemical Research) was subcultured in DMEM medium containing 10 % fetal bovine serum for provision to the test.
(§2) 2×10^4 NB1RBG cells per well were incubated in flat-bottomed 96-well microtiter plates containing 100 μl/well of each of DMEM media each containing 1 % fetal bovine serum and containing one of the test samples and TGF-β (5 ng/ml), at 37° C.-5 % CO2 for 5 days. A group not containing any test sample or TGF-β was also prepared, and incubation thereof was carried out at the same time with the test groups. After the completion of the incubation, the flat-bottomed 96-well microtiter plates on which the adhered cells and the extracellular matrices were adhered were stained with the following two methods for evaluation, respectively.
(b) Staining with anti-collagen antibody
First, the culture supernatants were removed, the wells were washed with phosphate-buffered physiological saline, and fixation was carried out with methanol under ice cooling for 10 minutes. Then, blocking was made with milk protein solution, Block Ace (produced by DAINIPPON PHARMACEUTICAL CO.), and rabbit anti-human type I collagen antibody (produced by CHEMICON CO.), biotin-labeled anti-rabbit immunoglobulin (produced by Amersham CO.) and avidin-biotin-labeled peroxidase complex (produced by Amersham CO.) were successively reacted to enzyme-label the sedimented type I collagen. 100 μl/well of 0.1 M citric acid phosphate buffer (pH 4.0) containing 2.5 mM 2,2'-azino-bis(3-ethylbenzothia-zoline-6-sulfate) (produced by SIGMA CO.) and 0.015 % H2 O2 was reacted therewith, and one hour later, absorbance at O.D. 415 was measured by a plate reader. The inhibition percetages of the type I collagen sedimentation in an unstimulating state and in a TGF-β-stimulating state were calculated according to the following equations.
(§3) The inhibition percentage of the production of extracellular matrices in an unstimulating state (%) [formula] The inhibition percentage of the production of extracellular matrices in TGF-β-stimulating state (%) [formula] E: The absorbance of a group containing only the solvent with which the test sample was prepared, and not containing TGF-β.
F: The absorbance of a group containing a test sample, but not containing TGF-β.
G: The absorbance of a group containing the solvent with which the test sample was prepared, and TGF-β.
H: The absorbance of a group containing a test sample and TGF-β.

[2] = test system: Human newborn dermal fibroblasts (NB1RBG); test: Inhibitory activity on the extracellular matrices production of fibroblasts with TGF-β, dye (Crystal Violet) staining method; assay type: cell-based; details: Fibroblast, 120 h
Experimental: as §1, §2
First, the culture supernatants were removed, the wells were washed with phosphate-buffered physiological saline, 100 μl/well of 0.05 % Crystal Violet-20 % ethanol staining solution was added, and the mixtures were left alone at room temperature for 10 minutes. Then, the plates were washed with flowing water and air dried, the remaining Crystal Violet was dissolved with 100 μl/well of methanol, and the absorbance at O.D. 570-690 was measured by a plate reader. The inhibition percentages of the production of extracellular matrices in an unstimulating state and in a TGF-β-stimulating state were calculated according to the following equations.
as §3, with “matrices in a TGF-β-stimulating state” for “matrices in TGF-β-stimulating state”, “(%) [formula] A: The absorbance” for “(%) [formula] E: The absorbance”
B: The absorbance of a group containing a test sample, but not containing TGF-β.
C: The absorbance of a group containing the solvent with which the test sample was prepared, and TGF-β.
D: The absorbance of a group containing a test sample and TGF-β.

[3] = test system: dermal fibrosis induced with bleomycin; test: Inhibitory activity on the production of collagen in dermal fibrosis model induced with bleomycin; assay type: in vivo, Hos:hr-1 male hairless mice; details: bleomycin 10 mg/kg/day i.p. 10 days, day 30
Experimental: Hos:hr-1 male hairless mice (5 weeks old) were used.
10 mg/kg/day portions of bleomycin were intraperitoneally administered to the hairless mice for 10 successive days. 0.1 ml Portions of ethanol solutions or Vaseline ointments of the Sophora flavescens AITON. extraction, the Rheum palmatum L. extract, o-phenanthroline and malotilate were applied onto the back skins every day from the start of the test, respectively. 30 Days later from the start of the test, the back skins were excised. The amounts of collagen in the excised skins were assayed using hydroxyproline amount as an index.
The inhibition percentage of dermal fibrosis with bleomycin was caluculated according to the following equation.
Inhibition percentage of dermal fibrosis (%) [formula] J: Hydroxyproline amount in the untreated group K: Hydroxyproline amount in the group of bleomycin administration+application of the base alone
L: Hydroxyproline amount in the group of bleomycin administration+application of the drug

[4] = read-out: Inhibition percentage of the extracellular matrices production, collagen staining method, TGF-β (+)
[5] = read-out: Inhibition percentage of the extracellular matrices production, collagen staining method, TGF-β (-)
[6] = read-out: Inhibition percentage of the extracellular matrices production, dye staining method, TGF-β (+)
[7] = read-out: Inhibition percentage of the extracellular matrices production, dye staining method, TGF-β (-)
[8] = 1 × 10^-4 M, TGF-β 5 ng/ml, 5 days, read-out: Inhibition percentage of the extracellular matrices production, collagen staining method, TGF-β (+)
[9] = 1 × 10^-4 M, unstimulated, 5 days, read-out: Inhibition percentage of the extracellular matrices production, collagen staining method, TGF-β (-)
[10] = 1 × 10^-5 M, TGF-β 5 ng/ml, 5 days, read-out: Inhibition percentage of the extracellular matrices production, collagen staining method, TGF-β (+)
[11] = 1 × 10^-5 M, unstimulated, 5 days, read-out: Inhibition percentage of the extracellular matrices production, collagen staining method, TGF-β (-)
[12] = 1 × 10^-6 M, TGF-β 5 ng/ml, 5 days, read-out: Inhibition percentage of the extracellular matrices production, collagen staining method, TGF-β (+)
[13] = 1 × 10^-6 M, unstimulated, 5 days, read-out: Inhibition percentage of the extracellular matrices production, collagen staining method, TGF-β (-)
[14] = 1 × 10^-4 M, TGF-β 5 ng/ml, 5 days, read-out: Inhibition percentage of the extracellular matrices production, dye staining method, TGF-β (+)
[15] = 1 × 10^-4 M, unstimulated, 5 days, read-out: Inhibition percentage of the extracellular matrices production, dye staining method, TGF-β (-)
[16] = 1 × 10^-5 M, TGF-β 5 ng/ml, 5 days, read-out: Inhibition percentage of the extracellular matrices production, dye staining method, TGF-β (+)
[17] = 1 × 10^-5 M, unstimulated, 5 days, read-out: Inhibition percentage of the extracellular matrices production, dye staining method, TGF-β (-)
[18] = 1 × 10^-6 M, TGF-β 5 ng/ml, 5 days, read-out: Inhibition percentage of the extracellular matrices production, dye staining method, TGF-β (+)
[19] = 1 × 10^-6 M, unstimulated, 5 days, read-out: Inhibition percentage of the extracellular matrices production, dye staining method, TGF-β (-)

Question: Which inhibition at 1 µM [1, 4] does the source give for `c1ccc(-c2ccccn2)nc1` [2,2'-Dipyridyl, 2,2'-dipyridyl] here?
Answer: Its inhibition at 1 µM is 14%.

Question: And the inhibition at 10 µM [1, 4]?
Answer: The inhibition at 10 µM was 30%.

Question: What about the inhibition at 100 µM [1, 4] of the same compound?
Answer: The inhibition at 100 µM was 77%.

Question: What about the inhibition at 1 µM [1, 5] of the same compound?
Answer: Its inhibition at 1 µM is 10%.

Question: What about the inhibition at 10 µM [1, 5] of the same compound?
Answer: The inhibition at 10 µM was 15%.

Question: And the inhibition at 100 µM [1, 5]?
Answer: Its inhibition at 100 µM is 18%.

Question: And the inhibition at 1 µM [2, 6]?
Answer: The inhibition at 1 µM was 7%.

Question: And the inhibition at 10 µM [2, 6]?
Answer: Its inhibition at 10 µM is 7%.

Question: And the inhibition at 100 µM [2, 6]?
Answer: Its inhibition at 100 µM is 84%.

Question: What about the inhibition at 1 µM [2, 7] of the same compound?
Answer: The inhibition at 1 µM was 5%.

Question: What about the inhibition at 10 µM [2, 7] of the same compound?
Answer: Its inhibition at 10 µM is 25%.

Question: What about the inhibition at 100 µM [2, 7] of the same compound?
Answer: The inhibition at 100 µM was 44%.

Question: With `CC(C)OC(=O)C(C(=O)OC(C)C)=C1SC=CS1` [Malotilate, malotilate] as the compound, how does the inhibition at 100 µM [1, 8] read?
Answer: The inhibition at 100 µM was 98%.

Question: And the inhibition at 100 µM [1, 9]?
Answer: Its inhibition at 100 µM is 7%.

Question: And the inhibition at 10 µM [1, 10]?
Answer: Its inhibition at 10 µM is 68%.

Question: What about the inhibition at 10 µM [1, 11] of the same compound?
Answer: Its inhibition at 10 µM is 6%.

Question: And the inhibition at 1 µM [1, 12]?
Answer: The inhibition at 1 µM was 20%.

Question: And the inhibition at 1 µM [1, 13]?
Answer: The inhibition at 1 µM was 9%.

Question: What about the “Hydroxyproline amount per weight of dried skin” value ([3]; 5% applied to back skin daily) of the same compound?
Answer: The value was 1.66 ± 0.25 µg/mg.

Question: And the “Inhibition percentage of dermal fibrosis” value ([3]; 5% applied to back skin daily)?
Answer: The value was 52.2%.

Question: What about the “Hydroxyproline amount per weight of dried skin” value ([3]; 10% applied to back skin daily) of the same compound?
Answer: Its value is 1.47 ± 0.19 µg/mg.

Question: And the “Inhibition percentage of dermal fibrosis” value ([3]; 10% applied to back skin daily)?
Answer: Its value is 80.6%.

Question: And the inhibition at 100 µM [2, 14]?
Answer: The inhibition at 100 µM was 92%.

Question: What about the inhibition at 100 µM [2, 15] of the same compound?
Answer: Its inhibition at 100 µM is 20%.

Question: What about the inhibition at 10 µM [2, 16] of the same compound?
Answer: The inhibition at 10 µM was 53%.

Question: And the inhibition at 10 µM [2, 17]?
Answer: Its inhibition at 10 µM is 23%.

Question: What about the inhibition at 1 µM [2, 18] of the same compound?
Answer: Its inhibition at 1 µM is 18%.

Question: What about the inhibition at 1 µM [2, 19] of the same compound?
Answer: The inhibition at 1 µM was 21%.

Question: What does the source list for `c1cnc2c(c1)ccc1cccnc12` [o-Phenanthroline, o-phenanthroline]?
Answer: inhibition at 100 µM [1, 8]: 100%; inhibition at 100 µM [1, 9]: 20%; inhibition at 10 µM [1, 10]: 90%; inhibition at 10 µM [1, 11]: 16%; inhibition at 1 µM [1, 12]: 27%; inhibition at 1 µM [1, 13]: 11%; Hydroxyproline amount per weight of dried skin ([3]; 5% applied to back skin daily): 1.72 ± 0.16 µg/mg; Inhibition percentage of dermal fibrosis ([3]; 5% applied to back skin daily): 43.3%; Hydroxyproline amount per weight of dried skin ([3]; 10% applied to back skin daily): 1.43 ± 0.10 µg/mg; Inhibition percentage of dermal fibrosis ([3]; 10% applied to back skin daily): 86.6%; inhibition at 100 µM [2, 14]: 95%; inhibition at 100 µM [2, 15]: 0%; inhibition at 10 µM [2, 16]: 86%; inhibition at 10 µM [2, 17]: 0%; inhibition at 1 µM [2, 18]: 1%; inhibition at 1 µM [2, 19]: 7%

From patent US6068845A, “Inhibition of abnormal accumulation of extra-cellular matrices” (Institute for Advanced Skin Research Inc., priority 1996, dated 2000)
